Source: ChEMBL document CHEMBL1770124, “Synthesis and in vitro evaluation of [18F]fluoroethyl triazole labelled [Tyr3]octreotate analogues using click chemistry” (Bioorg Med Chem Lett, 2011)
Where a SMILES comes first, the peptide text is derived from it. Bridges are numbered along the chain shown (N, C = ends). [ ]: non-standard residue; d: D form. The star is where a group is joined. Threoninol(2S,3R) = C[C@@H](O)[C@H](CO)N*

How the values were obtained:
[1] = Displacement of [111In]-DTPA-octreotide from somatostatin receptor in rat AR42J cells; assay type: cell-based; settings: ar-42j
[2] = Partition coefficient, log D of the compound; assay type: physicochemical; settings: octanol/water
[3] = Displacement of [125I]-somatostatin-14 from somatostatin receptor in rat AR42J cells; assay type: cell-based; settings: ar-42j

SMILES	IC50 [1] [µM]	logD [2]	IC50 [3] [µM]
C#CC(=O)NCC(=O)NCCOCCOCCOCCOCCOCCOCCC(=O)N[C@H](Cc1ccccc1)C(=O)N[C@H]1CSSC[C@@H](C(=O)N[C@H](C(=O)O)[C@@H](C)O)NC(=O)[C@H]([C@@H](C)O)NC(=O)[C@H](CCCCN)NC(=O)[C@@H](Cc2c[nH]c3ccccc23)NC(=O)[C@H](Cc2ccc(O)cc2)NC1=O	0.00523	–	–
C[C@@H](O)[C@H](NC(=O)[C@@H]1CSSC[C@H](NC(=O)[C@@H](Cc2ccccc2)NC(=O)CCOCCOCCOCCOCCOCCOCCNC(=O)CNC(=O)c2cn(CC[18F])nn2)C(=O)N[C@@H](Cc2ccc(O)cc2)C(=O)N[C@H](Cc2c[nH]c3ccccc23)C(=O)N[C@@H](CCCCN)C(=O)N[C@@H]([C@@H](C)O)C(=O)N1)C(=O)O	0.0108	-2.68	–
C[C@@H](O)[C@H](NC(=O)[C@@H]1CSSC[C@H](NC(=O)[C@@H](Cc2ccccc2)NC(=O)CCOCCOCCOCCOCCOCCOCCNC(=O)CCc2cn(CC[18F])nn2)C(=O)N[C@@H](Cc2ccc(O)cc2)C(=O)N[C@H](Cc2c[nH]c3ccccc23)C(=O)N[C@@H](CCCCN)C(=O)N[C@@H]([C@@H](C)O)C(=O)N1)C(=O)O	0.0132	-2.77	–
C[C@@H](O)[C@@H]1NC(=O)[C@@H](NC(=O)[C@@H](Cc2cc3ccccc3[nH]2)NC(=O)CNC(=O)CCNC(=O)c2cn(CC[18F])nn2)CSSC[C@@H](C(=O)N[C@@H](CCCCN)C(=O)O)NC(=O)[C@H](Cc2ccc(O)cc2)NC(=O)[C@H]([C@@H](C)O)NC(=O)[C@@H](Cc2ccccc2)NC1=O	> 10000	-1.14	–
C[C@@H](O)[C@H](CO)NC(=O)[C@@H]1CSSC[C@H](NC(=O)[C@H](N)Cc2ccccc2)C(=O)N[C@@H](Cc2ccccc2)C(=O)N[C@H](Cc2c[nH]c3ccccc23)C(=O)N[C@@H](CCCCN)C(=O)N[C@@H]([C@@H](C)O)C(=O)N1 (H-[dF]CF[dW]KTC-{Threoninol(2S,3R)}; disulfide 2-7)	–	–	0.0147
C#CCCC(=O)NCCOCCOCCOCCOCCOCCOCCC(=O)N[C@H](Cc1ccccc1)C(=O)N[C@H]1CSSC[C@@H](C(=O)N[C@H](C(=O)O)[C@@H](C)O)NC(=O)[C@H]([C@@H](C)O)NC(=O)[C@H](CCCCN)NC(=O)[C@@H](Cc2c[nH]c3ccccc23)NC(=O)[C@H](Cc2ccc(O)cc2)NC1=O	0.0051	–	–

Further lines, with some results ahead:

IC50 [1] [µM]	logD [2]	SMILES	IC50 [3] [µM]
0.0014	–	C#CC(=O)NCC(=O)N[C@H](Cc1ccccc1)C(=O)N[C@H]1CSSC[C@@H](C(=O)N[C@H](C(=O)O)[C@@H](C)O)NC(=O)[C@H]([C@@H](C)O)NC(=O)[C@H](CCCCN)NC(=O)[C@@H](Cc2c[nH]c3ccccc23)NC(=O)[C@H](Cc2ccc(O)cc2)NC1=O	–
0.0018	–	C#CCCC(=O)N[C@H](Cc1ccccc1)C(=O)N[C@H]1CSSC[C@@H](C(=O)N[C@H](C(=O)O)[C@@H](C)O)NC(=O)[C@H]([C@@H](C)O)NC(=O)[C@H](CCCCN)NC(=O)[C@@H](Cc2c[nH]c3ccccc23)NC(=O)[C@H](Cc2ccc(O)cc2)NC1=O	–
0.004	-1.83	C[C@@H](O)[C@H](NC(=O)[C@@H]1CSSC[C@H](NC(=O)[C@@H](Cc2ccccc2)NC(=O)CNC(=O)c2cn(CC[18F])nn2)C(=O)N[C@@H](Cc2ccc(O)cc2)C(=O)N[C@H](Cc2c[nH]c3ccccc23)C(=O)N[C@@H](CCCCN)C(=O)N[C@@H]([C@@H](C)O)C(=O)N1)C(=O)O	–
0.0029	-1.5	C[C@@H](O)[C@H](NC(=O)[C@@H]1CSSC[C@H](NC(=O)[C@@H](Cc2ccccc2)NC(=O)CCc2cn(CC[18F])nn2)C(=O)N[C@@H](Cc2ccc(O)cc2)C(=O)N[C@H](Cc2c[nH]c3ccccc23)C(=O)N[C@@H](CCCCN)C(=O)N[C@@H]([C@@H](C)O)C(=O)N1)C(=O)O	–
0.001	–	C#CC(=O)NCCC(=O)NCC(=O)N[C@H](Cc1ccccc1)C(=O)N[C@H]1CSSC[C@@H](C(=O)N[C@H](C(=O)O)[C@@H](C)O)NC(=O)[C@H]([C@@H](C)O)NC(=O)[C@H](CCCCN)NC(=O)[C@@H](Cc2c[nH]c3ccccc23)NC(=O)[C@H](Cc2ccc(O)cc2)NC1=O	–
